Paper PMC4999073 (PLoS ONE, 2016)
Values belong to the compound of their own block, whether it stands above or below them. Where a SMILES comes first, the peptide text is derived from it.

Assays:
[1] = tested on: Staphylococcus aureus ATCC 29740; settings: radial diffusion assay; defensin alone or reaction mixture after 4 h at 30°C with cathepsin (S:E molar ratio 100), 0.1 M sodium acetate pH 5.5, 2 mM DTT, 0.01% Brij35; mean ± SEM, n = 3; NI: no inhibition detected
Text: (§1) The reaction mixture without defensin added was used as negative control and the defensin alone was used as positive control. […] The strain Salmonella enterica serovar Typhimurium LT2 was kindly provided by Dr Benoît Doublet (INRA, UMR1282 ISP, Nouzilly, France). The strain Streptococcus salivarius was a clinical strain isolated from blood culture, kindly provided by Dr Christine Delorme (INRA, UMR1319 MICALIS, Jouy en Josas, France).
(§2) A Mann-Whitney non-parametric U test was used to compare the minimal inhibitory concentration of each defensin before and after incubation with cathepsins.

[2] = tested on: Escherichia coli ATCC 25922; settings: radial diffusion assay, n = 3
Text: as §1, §2

[3] = target: Human Cat D (Homo sapiens, UniProt P07339); settings: 12.5 μM defensin, 125 nM Cat D (S:E 100), 0.1 M sodium citrate pH 3.5, 200 mM NaCl, 4 h, 30°C; RP-HPLC, 220 nm
Sequence of Human Cat D (P07339 65-412): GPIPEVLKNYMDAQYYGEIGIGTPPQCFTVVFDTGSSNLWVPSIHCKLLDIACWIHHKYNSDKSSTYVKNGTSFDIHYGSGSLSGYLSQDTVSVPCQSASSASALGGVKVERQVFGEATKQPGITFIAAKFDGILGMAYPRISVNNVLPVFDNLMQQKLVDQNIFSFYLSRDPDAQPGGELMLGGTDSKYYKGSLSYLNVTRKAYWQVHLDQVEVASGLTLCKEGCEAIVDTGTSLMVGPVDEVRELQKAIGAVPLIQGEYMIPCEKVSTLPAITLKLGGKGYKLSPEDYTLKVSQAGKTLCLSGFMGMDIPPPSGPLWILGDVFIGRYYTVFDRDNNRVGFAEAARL
Method: (§4) Chromatograms were analyzed by running the ChromoQuest Chromatography Workstation (Thermo Fisher Scientific, Les Ulis, France).

[4] = target: Human Cat S (Homo sapiens, UniProt P25774); settings: 12.5 μM defensin, 125 nM Cat S (S:E 100), 0.1 M sodium acetate pH 5.5, 2 mM DTT, 0.01% Brij35, 4 h, 30°C; RP-HPLC, 220 nm
Sequence of Human Cat S (P25774 115-331): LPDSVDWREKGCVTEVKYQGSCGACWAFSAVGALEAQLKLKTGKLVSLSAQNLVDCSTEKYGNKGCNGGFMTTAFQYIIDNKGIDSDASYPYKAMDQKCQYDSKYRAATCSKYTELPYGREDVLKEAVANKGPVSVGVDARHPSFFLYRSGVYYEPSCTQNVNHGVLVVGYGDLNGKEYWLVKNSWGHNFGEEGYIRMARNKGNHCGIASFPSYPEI

[5] = target: Human Cat H (Homo sapiens, UniProt P09668); settings: 12.5 μM defensin, 125 nM Cat H (S:E 100), 0.1 M sodium acetate pH 5.5, 2 mM DTT, 0.01% Brij35, 4 h, 30°C; RP-HPLC, 220 nm
Sequence of Human Cat H (P09668 98-335): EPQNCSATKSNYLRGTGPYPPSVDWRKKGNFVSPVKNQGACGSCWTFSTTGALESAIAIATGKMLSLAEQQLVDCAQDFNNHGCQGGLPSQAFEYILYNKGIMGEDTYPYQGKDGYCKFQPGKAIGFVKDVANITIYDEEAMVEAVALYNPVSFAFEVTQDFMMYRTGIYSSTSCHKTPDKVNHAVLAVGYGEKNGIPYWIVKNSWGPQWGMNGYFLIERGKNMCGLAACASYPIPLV

[6] = tested on: trypsin; settings: 12.5 μM defensin, 125 nM trypsin (S:E 100), 0.1 M Tris/HCl pH 8.0, 50 mM CaCl2, 100 mM NaCl, 4 h, 30°C; RP-HPLC, 220 nm
Method: as §4

[7] = target: Human Cat L (Homo sapiens, UniProt P07711); settings: 12.5 μM defensin, 125 nM Cat L (S:E 100), 0.1 M sodium acetate pH 5.5, 2 mM DTT, 0.01% Brij35, 4 h, 30°C; RP-HPLC, 220 nm
Sequence of Human Cat L (P07711 114-333): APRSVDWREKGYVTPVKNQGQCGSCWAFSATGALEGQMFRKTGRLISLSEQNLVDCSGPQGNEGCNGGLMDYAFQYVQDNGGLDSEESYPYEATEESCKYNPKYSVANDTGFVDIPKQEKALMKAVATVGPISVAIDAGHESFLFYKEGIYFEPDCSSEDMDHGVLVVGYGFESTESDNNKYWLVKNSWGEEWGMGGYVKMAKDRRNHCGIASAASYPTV

[8] = target: Human Cat K (Homo sapiens, UniProt P43235); settings: 12.5 μM defensin, 125 nM Cat K (S:E 100), 0.1 M sodium acetate pH 5.5, 2 mM DTT, 0.01% Brij35, 4 h, 30°C; RP-HPLC, 220 nm
Sequence of Human Cat K (P43235 115-329): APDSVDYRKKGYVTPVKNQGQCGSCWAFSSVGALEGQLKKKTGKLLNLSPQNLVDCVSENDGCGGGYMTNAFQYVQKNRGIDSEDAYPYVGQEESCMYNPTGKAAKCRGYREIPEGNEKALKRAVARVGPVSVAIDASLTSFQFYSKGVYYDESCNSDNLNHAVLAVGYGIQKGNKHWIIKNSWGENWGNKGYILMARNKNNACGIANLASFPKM

[9] = tested on: chymotrypsin; settings: 12.5 μM defensin, 125 nM chymotrypsin (S:E 100), 0.1 M Tris/HCl pH 7.8, 20 mM CaCl2, 4 h, 30°C; RP-HPLC, 220 nm
Method: as §4

[10] = target: Human Cat B (Homo sapiens, UniProt P07858); settings: 12.5 μM defensin, 125 nM Cat B (S:E 100), 0.1 M sodium acetate pH 5.5, 2 mM DTT, 0.01% Brij35, 4 h, 30°C; RP-HPLC, 220 nm
[11] = target: Human neutrophil elastase (HNE) (Homo sapiens, UniProt P08246); settings: 12.5 μM defensin, 125 nM HNE (S:E 100), 0.05 M HEPES pH 7.4, NP40 0.05%, 150 mM NaCl, 4 h, 30°C; RP-HPLC, 220 nm
Sequence of Human neutrophil elastase (HNE) (Homo sapiens, UniProt P08246) (P08246 30-267): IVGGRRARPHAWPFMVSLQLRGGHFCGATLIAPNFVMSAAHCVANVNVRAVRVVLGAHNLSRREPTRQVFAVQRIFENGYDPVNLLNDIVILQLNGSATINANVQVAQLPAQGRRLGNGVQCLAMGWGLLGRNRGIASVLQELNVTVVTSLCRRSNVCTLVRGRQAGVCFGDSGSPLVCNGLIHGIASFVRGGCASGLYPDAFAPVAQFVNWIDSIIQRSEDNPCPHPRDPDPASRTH
Method: as §4

[12] = tested on: Streptococcus salivarius JIM 8780; test: Radial diffusion antibacterial assay (MIC); format: cell-based; settings: Table 3, mean +/- SEM, n = 3
Method: (§3) The antibacterial activity of purified AvBD2 and AvBD7 and of each enzyme-AvBD reaction mixture was measured by radial diffusion assay as described previously, allowing the determination of the minimal inhibitory concentration (MIC) against Staphylococcus aureus ATCC 29740 and against Escherichia coli ATCC 25922 as representative Gram-positive and Gram-negative strains, respectively. The reaction mixture without defensin added was used as negative control and the defensin alone was used as positive control. For AvBD7 and its major degradation product, MIC was determined towards three Gram-negative and three Gram-positive bacterial strains, respectively, including Pseudomonas aeruginosa ATCC 25010, Escherichia coli ATCC 25922, Salmonella enterica serovar Typhimurium LT2 ATCC 700720, Listeria monocytogenes strain EGD, Staphylococcus aureus ATCC 29740, and Streptococcus salivarius JIM 8780. The strain Salmonella enterica serovar Typhimurium LT2 was kindly provided by Dr Benoît Doublet (INRA, UMR1282 ISP, Nouzilly, France). The strain Streptococcus salivarius was a clinical strain isolated from blood culture, kindly provided by Dr Christine Delorme (INRA, UMR1319 MICALIS, Jouy en Josas, France).

[13] = tested on: Salmonella enterica serovar Typhimurium LT2 ATCC 700720; test: Radial diffusion antibacterial assay (MIC); format: cell-based; settings: Table 3, mean +/- SEM, n = 3
Method: as §3

[14] = tested on: Pseudomonas aeruginosa ATCC 25010; test: Radial diffusion antibacterial assay (MIC); format: cell-based; settings: Table 3, mean +/- SEM, n = 3
Method: as §3

[15] = tested on: Listeria monocytogenes strain EGD; test: Radial diffusion antibacterial assay (MIC); format: cell-based; settings: Table 3, mean +/- SEM, n = 3
Method: as §3

[16] = tested on: Human neutrophil elastase (HNE); test: 125 nM HNE in 0.05 M HEPES buffer, pH 7.4, NP40 0.05% 150 mM NaCl; settings: 30°C, up to 4 h
[17] = tested on: Cat D; test: 125 nM Cat D in 0.1 M sodium citrate buffer, pH 3.5, 200 mM NaCl; settings: human, 30°C, up to 4 h
[18] = tested on: chymotrypsin; test: 125 nM chymotrypsin in 0.1 M Tris/HCl buffer, pH 7.8, 20 mM CaCl2; settings: 30°C, up to 4 h
[19] = tested on: trypsin; test: 125 nM trypsin in 0.1 M Tris/HCl buffer, pH 8.0, 50 mM CaCl2, 100 mM NaCl; settings: 30°C, up to 4 h
[20] = tested on: Cat H; test: 125 nM Cat H in 0.1 M sodium acetate buffer, pH 5.5 containing 2 mM DTT and 0.01% Brij35; settings: human, 30°C, up to 4 h
[21] = tested on: Cat S; test: 125 nM Cat S in 0.1 M sodium acetate buffer, pH 5.5 containing 2 mM DTT and 0.01% Brij35; settings: human, 30°C, up to 4 h
[22] = tested on: Cat L; test: 125 nM Cat L in 0.1 M sodium acetate buffer, pH 5.5 containing 2 mM DTT and 0.01% Brij35; settings: human, 30°C, up to 4 h
[23] = tested on: Cat B; test: 125 nM Cat B in 0.1 M sodium acetate buffer, pH 5.5 containing 2 mM DTT and 0.01% Brij35; settings: human, 30°C, up to 4 h
[24] = tested on: Cat K; test: 125 nM Cat K in 0.1 M sodium acetate buffer, pH 5.5 containing 2 mM DTT and 0.01% Brij35; settings: human, 30°C, up to 4 h

Compound: CC[C@H](C)[C@@H]1NC(=O)[C@H](CC(C)C)NC(=O)[C@H](Cc2c[nH]cn2)NC(=O)[C@H](CO)NC(=O)[C@@H]2CCCN2C(=O)[C@@H]2CSSC[C@@H](C(=O)N[C@@H](CCCCN)C(=O)N[C@@H](Cc3c[nH]c4ccccc34)C(=O)N3CCC[C@H]3C(=O)N[C@@H](Cc3c[nH]c4ccccc34)C(=O)N[C@@H](CC(N)=O)C(=O)N[C@@H](C)C(=O)O)NC(=O)[C@@H]3CSSC[C@H](NC(=O)[C@H](Cc4ccccc4)NC(=O)[C@@H](N)CC(C)C)C(=O)N[C@@H](CCCCN)C(=O)NCC(=O)NCC(=O)N[C@@H](CO)C(=O)N[C@@H](CSSC[C@H](NC(=O)[C@H](CO)NC(=O)CNC(=O)[C@H](C(C)C)NC(=O)[C@H](CCCCN)NC1=O)C(=O)N[C@@H](Cc1ccccc1)C(=O)NCC(=O)N[C@@H](Cc1ccccc1)C(=O)N[C@@H](CCCNC(=N)N)C(=O)N[C@@H](CO)C(=O)N3)C(=O)N[C@@H](Cc1c[nH]cn1)C(=O)N[C@@H](Cc1ccccc1)C(=O)NCC(=O)NCC(=O)N2 [AvBD2] (HELM PEPTIDE1{L.F.C.K.G.G.S.C.H.F.G.G.C.P.S.H.L.I.K.V.G.S.C.F.G.F.R.S.C.C.K.W.P.W.N.A}$PEPTIDE1,PEPTIDE1,3:R3-29:R3|PEPTIDE1,PEPTIDE1,8:R3-23:R3|PEPTIDE1,PEPTIDE1,13:R3-30:R3$$$V2.0)
MIC (μM) S. aureus [1]: 1 ± 0 µM
MIC (μM) E. Coli ([2]; defensin alone or reaction mixture after 4 h at 30°C with cathepsin (S:E molar ratio 100), 0.1 M sodium acetate pH 5.5, 2 mM DTT, 0.01% Brij35, mean ± SEM, NI: no inhibition detected): 3 ± 2 µM
Hydrolysis by Cat D [3]: did not cleave
Hydrolysis by Cat S [4]: partially degraded
Hydrolysis by Cat H [5]: resistant to hydrolysis
Hydrolysis by trypsin [6]: did not cleave
Hydrolysis by Cat L [7]: partially degraded
Hydrolysis by Cat K [8]: totally digested
Hydrolysis by chymotrypsin [9]: did not cleave
Hydrolysis by Cat B [10]: partially degraded
Hydrolysis by neutrophil elastase [11]: did not cleave

Compound: CC[C@H](C)[C@H](N)C(=O)N1CCC[C@H]1C(=O)N[C@@H](CCCNC(=N)N)C(=O)N1CCC[C@H]1C(=O)N[C@H](C(=O)N[C@@H](CC(=O)O)C(=O)N[C@H](C(=O)N[C@H]1CSSC[C@@H]2NC(=O)[C@H](CO)NC(=O)CNC(=O)[C@H]([C@@H](C)CC)NC(=O)CNC(=O)[C@H](CC(N)=O)NC(=O)[C@H](CC(N)=O)NC(=O)[C@@H]3CSSC[C@H](NC(=O)[C@H]([C@@H](C)CC)NC(=O)CNC(=O)[C@H](CC(N)=O)NC(=O)[C@H](CCCNC(=N)N)NC(=O)[C@H](CC(C)C)NC(=O)[C@H](CCCNC(=N)N)NC1=O)C(=O)N[C@@H](Cc1ccccc1)C(=O)N1CCC[C@H]1C(=O)NCC(=O)N[C@@H]([C@@H](C)CC)C(=O)N[C@@H](CSSC[C@@H](C(=O)N[C@@H](C)C(=O)N[C@@H](CCCNC(=N)N)C(=O)NCC(=O)N[C@@H](Cc1c[nH]c4ccccc14)C(=O)N[C@@H](CCCNC(=N)N)C(=O)N[C@@H](CO)C(=O)O)NC2=O)C(=O)N[C@@H](CCCNC(=N)N)C(=O)N[C@@H](CCCNC(=N)N)C(=O)N1CCC[C@H]1C(=O)N[C@@H](Cc1ccc(O)cc1)C(=O)N[C@@H](Cc1ccc(O)cc1)C(=O)N[C@@H](Cc1c[nH]c2ccccc12)C(=O)N[C@@H]([C@@H](C)CC)C(=O)NCC(=O)N[C@@H]([C@@H](C)O)C(=O)N3)[C@@H](C)O)[C@@H](C)CC [Ile4-AvBD7]
MIC (μM) Escherichia coli ([2]; Table 3, mean +/- SEM): 0.5 (± 0.1) μM
MIC (μM) Streptococcus salivarius [12]: 1.0 (± 0.5) μM
MIC (μM) Salmonella Typhimurium [13]: 1.4 (± 0.9) μM
MIC (μM) Pseudomonas aeruginosa [14]: 0.2 (± 0.1) μM
MIC (μM) Listeria monocytogenes [15]: 0.2 (± 0.1) μM

not cleaved [16]: did not cleave (4 hours)
not cleaved [17]: did not cleave (4 hours)
not cleaved [18]: did not cleave (4 hours)
not cleaved [19]: did not cleave (4 hours)
not cleaved [20]: resistant to hydrolysis (4 h)
Compound: LFCKGGSCHFGGCPSHLIKVGSCFGFRSCCKWPWNA

not cleaved [16]: did not cleave (4 hours)
not cleaved [21]: fully resistant to hydrolysis (4 h)
not cleaved [22]: fully resistant to hydrolysis (4 h)
not cleaved [17]: did not cleave (4 hours)
not cleaved [23]: fully resistant to hydrolysis (4 h)
not cleaved [18]: did not cleave (4 hours)
not cleaved [19]: did not cleave (4 hours)
cleaved bond [24]: Phe3-Ile4
not cleaved [20]: resistant to hydrolysis (4 h)
Compound: QPFIPRPIDTCRLRNGICFPGICRRPYYWIGTCNNGIGSCCARGWRS
